According to patent US4880014A, “Method for determining therapeutic drug dosage using bioelectrical resistance and reactance measurements” (priority 1988, dated 1989):
Where “and” joins values, the source holds several entries; their conditions need not be identical. Identical values can stand only once.

Assays:
[1] = Gentamicin K and V predicted by bioelectrical impedance (multiple regression), and dosage regimen calculated from predicted K, V; design: species or system human; conditions: two-sided T-test
Method: Twelve human subjects participated in the following study. The resistance (R) and the reactance (Xc) of each patient was measured using a four-terminal impedance plethysmograph. During the measurement, the subjects were placed in the supine position on an insulative surface. The electrodes were attached in the following manner. Those areas of the patient's skin where the electrodes were to be connected were cleaned thoroughly with alcohol. The four pre-gelled electrodes were then attached to the patient such that one current electrode was attached to the dorsal surface of the patient's right hand at the distal metacarpals, one current electrode was attached to the patient's right foot at the location of the distal metatarsals, one detector electrode was connected to the patients right wrist at the right pisiform prominence, and one detector electrode was connected to the patient's right ankle between the medial and lateral malleoli. An excitation current of 800 microamps and frequency of 50 kHz was then applied and R and Xc values obtained. […]
(§1) Calculation of (K) and (V) from the measured serum concentration data was performed as were the dosage regimens using the measured serum concentration data by the equations of Sawchuk and Zaske which will be known to those skilled in the art.

[2] = human, in vivo, iv
Method: Twelve human subjects participated in the following study. The resistance (R) and the reactance (Xc) of each patient was measured using a four-terminal impedance plethysmograph. During the measurement, the subjects were placed in the supine position on an insulative surface. The electrodes were attached in the following manner. Those areas of the patient's skin where the electrodes were to be connected were cleaned thoroughly with alcohol. […]
The elimination rate constant was determined by nonlinear regression analysis of the serum concentration data for each patient using Micrononlin (Micrononlin, Elite Software, box 11223. Pittsburgh. PA 15238).
Volume of distribution was calculated by the Sawchuk-Zaske method.
as §1

[3] = Simulation of gentamicin peak and trough serum concentrations for an average 70 kg patient; design: species or system human
Method: Serum concentrations were then simulated for an average 70 kg patient given a one-hour infusion of the dose to achieve a postdose serum concentration of 6.0 mcg/ml and a predose serum concentration of 1.0 mcg/ml. This simulation was performed with the values of (K) and (V) determined by measured serum concentrations and the calculated dosage regimen from these measured (K) and (V) values, is recorded, respectively, in columns A and B of Table VI. A simulation was also performed with the dosage regimen determined by the bioelectrical impedance analysis of the present invention, using the patient's actual measured (K) and (V), to test the prediction error of the method of dosing of the present invention. Equations A and B which were discussed earlier were used for calculating dosing interval and dose. The latter is recorded respectively in columns C and D of Table VI.

[4] = Theophylline Cl, K and V predicted by bioelectrical impedance (multiple regression), and dose calculated from predicted Cl; design: species or system human; conditions: two-sided t-test
Text: An excitation current of 800 microamps and frequency of 50 kHz was then applied and (R) and (Xc) values obtained.
The independent variables set forth in Table VII were used in a stepwise multiple linear regression program to produce the models of best definition for (Cl), (K) and (V) by entering each patients individual variables (Cl), (V) and (K) into the program. It then fits a linear least-squares regression model to the entire set of independent variables to identify the best independent variables and their coefficients for the description of the […] dependent variables (Cl), (K) and (V). Insignificant variables were dropped from the model. The equations generated are those set forth previously as Equation 3, Equation 4 and Equation 5.
Other internationally recognized programs could also be used and may include BMDP (Biomedical Data Processing) and SPSS (Statistical Programming for the Social Sciences).
In Table VIII, clearance (Cl), elimination rate constant (K), and volume of distribution (V), determined for theophylline using a multiple regression analysis produced F variable sequence defined in Tables VII and IX are shown in columns B, D, and F, respectively. Table VII is the model sequence used to solve for (Cl), (K) and (V) as derived by stepwise regression analysis. […]

[5] = Theophylline pharmacokinetics in fifteen normal adult males from serum concentrations (Lagran), and dose calculated from measured Cl; type: in vivo, human
Text: Fifteen normal adult males were used in the following study. Each subject was given a single intravenous dosage of theophylline.
Serial blood samples were obtained, for all fifteen patients, from an intravenous catheter placed in the arm.
F=1.0, assuming 100% oral absorption

Row | Molecule | Comparison of K, V and dosage regimens, bioelectrical impedance vs measured serum concentration [1] | Elimination Rate Constant (K), Meas., mean [2] | Serum concentrations for all twelve patients [2] | Comparison of postdose or predose concentrations simulated from measured K, V vs bioelectrical impedance K, V [3] | Comparison of K, V, Cl and dosage regimens, bioelectrical impedance vs measured serum concentrations [4] | clearance ([5]; human, serum, iv, 4 mg/kg, mean of fifteen subjects, column A, read-out: Clearance (Cl), Meas., MEAN (converted)) | k el ([5]; human, serum, iv, 4 mg/kg, mean of fifteen subjects, column C, read-out: Elimination Rate Constant (K), Meas., MEAN (converted)) | Vd ([5]; human, serum, iv, 4 mg/kg, mean of fifteen subjects, column E, read-out: Volume of Distribution (V), Meas., MEAN) | Elimination Rate Constant (K), Meas. ([5]; individual patients (Pt. 1-15), single intravenous 4 mg/kg, 30 minute infusion, column C)
1 | gentamicin | no statistically significant differences | .270 hr -1 | 2000 to 10000 ng/mL | no statistically significant differences | – | – | – | – | –
2 | Cn1c(=O)c2[nH]cnc2n(C)c1=O [theophylline] | – | – | – | – | no statistically significant differences | 52.3 mL/min | 2.36e-05 s⁻¹ | 39.4 L | .0885 h and .0631 h and .0591 h and .0521 h and .0813 h and .0895 h and .1241 h and .0305 h and .1895 h and .0815 h and .0938 h and .0921 h and .0713 h and .0774 h
